# From article PMC9429672, “Structure and diffusive dynamics of aspartate α-decarboxylase (ADC) liganded with D-serine in aqueous solution” (Physical Chemistry Chemical Physics, 2022)
# Target: T1, aspartate α-decarboxylase (ADC) (Escherichia coli, UniProt A0A4Y8GT61)
# T1 construct: gene panD; recombinant, purified from E. coli by earlier protocols; zymogen self-cleaved into alpha and beta chains, pyruvoyl cofactor at beta N-terminus; homotetramer
# Assay: X-ray crystal structure of soaked crystal
# Type: binding
# Details: crystals in 1.8 M ammonium sulphate, 100 mM sodium citrate pH 4.5, D-serine soak about 2 min; active site; two ligand conformers (60% / 40% occupancy); inhibitor
smiles,measurement,value
N[C@H](CO)C(=O)O [D-serine],X-ray crystal structure of soaked crystal,The crystal structure of ADC in complex with D-serine was determined
